In US20020115728A1, “Compositions and methods for treating cardiovascular disorders” (priority 2000, published 2002):
Values belong to the compound of their own block, whether it stands above or below them.

Legend:
[1] = tested on: New Zealand White rabbits with arterial balloon injury; assay: Serum and plasma lipid profile and antioxidants; type: in vivo
Method: (§1) Twelve rabbits were initially fed standard rabbit chow ad libitum for two weeks, before commencement of the nine weeks intervention study. Six rabbits were fed 100 g per day of standard rabbit chow without (control) or with 0.02% PDA474. At the end of week three, the abdominal aorta and right iliac artery were injured by inserting a 3F Fogarty catheter into the right femoral artery and advancing it by about 25 cm to a position just above the diaphragm. The balloon was then inflated with 0.2 mL of saline, and the catheter pulled back three times. Following injury rabbits were placed back onto their respective diet for another six weeks. During the nine weeks, blood was taken from the marginal ear vein of non-fasted rabbits each week for measuring plasma PDA474 and its metabolites. At the end of week nine, the aorta, iliofemoral arteries and a portion of various tissues (liver, kidney, heart, muscle, spleen and abdominal fat) were harvested.

[2] = tested on: abdominal aortic rings of balloon-injured rabbits; assay: Aortic ring study (response to NE, ACh, SNP); type: in vivo, New Zealand White rabbits
Source text: Following the intervention, the abdominal aorta was removed carefully, cleared of adhering fat and connective tissue, and then cut into 2 mm-wide transverse rings just under second lumbar artery (about 9 cm distal to the common iliac artery and about 5 cm below the celiac artery). This portion of the aorta contains few branches. […] Before the start of the experiments, aortic rings were allowed to equilibrate for one hour under a resting tension of 2.5 g, followed by three washes and re-equilibration of the rings between addition of drugs inducing vaso-response. At the end of each experiment, the aortic ring was weight. The vascular function was assessed in three parts:
2) The response to the endothelium-dependent vasodilator, acetylcholine (ACh). Rings were pre-constricted with PE corresponding to a dose that gave half-maximum contraction (EC50) as calculated from the dose-response curve to NE. ACh (10^−9-10^−5 M) was added after reaching a constant contriction.
3) The response to the endothelium-independent vasodilator, sodium nitroprusside (SNP) (10^−9-10^−5 M) was determined to assess vascular smooth muscle cell function.

[3] = PDA474 and metabolite levels in plasma, aorta and major tissues; type: in vivo, New Zealand White rabbits
Method: as §1

[4] = tested on: intimal thickening in rabbit aorta after arterial balloon injury; assay: Histological evaluation of aortic lesion formation after arterial balloon injury; type: in vivo, New Zealand White rabbits; conditions: rabbits, 0.02% PDA474, six weeks after ABI
Method: as §1
The lower abdominal aorta and iliofemeral arteries were pre-perfusion-fixed with 4% buffered formalin at a constant physiological pressure (˜100 mmHg) before removal and placement in 4% buffered formalin for further fixation for 12 h at room temperature. Two parts of the abdominal aorta were taken for lesion assessment. One part (referred to as A1) was located just above 3rd lumber artery close to the lumber branches, and the other part (referred to as A3) represented the central part between 3rd and 4th lumber arteries, where there are few branches. A1 and A3 specimens were embedded in paraffin and two sections (200 μm apart) were taken from each specimen and stained with Verhoeff hematoxylin.
The intima, media and intima/media ratio (IMR) were calculated by tracing the intimal and medial areas and determining their respective total pixel numbers. High IMR indicate large lesions. In addition, the perimeter of the external elastic lamina and the lumen were quantified using Scion Image Software to assess the extent of vessel remodeling.

[5] = tested on: cGMP production by aortic rings; assay: cGMP in homogenates of aortic rings (radioimmunoassay); type: in vivo, New Zealand White rabbits; conditions: aortic rings of PDA474-treated rabbits, 1 μM ACh
Method: cGMP in the homogenates of aortic ring was determined by a specific radioimmunoassay. […] SNP (1 μM) was used as a positive and buffer vehicle as a negative control. The cGMP content was then determined as described in the commercial assay kit (Cayman Chemical), and results expressed per tissue weight or protein.

[6] = tested on: New Zealand White rabbits with arterial balloon injury; assay: Liver function (serum AST, ALT, GGT); type: in vivo; conditions: for Serum ALT / Serum AST / Serum GGT: 0.02% PDA474
Method: as §1

α-tocopheroxyl radical = assay: Tocopheroxyl radical attenuating ability (TRAA); type: biochemical; conditions: kobs with (+) or without (−) test compound
[7] = tested on: tocopherol-mediated peroxidation (TMP); assay: Anti-TMP index; type: biochemical
[8] = 0.02% PDA474, Week 0 (baseline)

Fat PDA474 level ([3]; 0.02% PDA474, 9 weeks, abdominal fat): 1.99 ± 0.40 nmol/mg P
Aorta PDA474 level ([3]; 0.02% PDA474, 9 weeks, aorta): 0.59 ± 0.12 nmol/mg P
Heart PDA474 level ([3]; 0.02% PDA474, 9 weeks, heart): 0.65 ± 0.43 nmol/mg P
Kidney PDA474 level ([3]; 0.02% PDA474, 9 weeks, kidney): 0.26 ± 0.06 nmol/mg P
Liver PDA474 level ([3]; 0.02% PDA474, 9 weeks, liver): 7.30 ± 2.82 nmol/mg P
Muscle PDA474 level ([3]; 0.02% PDA474, 9 weeks, muscle): 0.17 ± 0.06 nmol/mg P
Spleen PDA474 level ([3]; 0.02% PDA474, 9 weeks, spleen): 0.30 ± 0.13 nmol/mg P
concentration at 9 weeks ([3]; New Zealand White, rabbit, oral, 0.02 % in chow, rabbits, 0.02% PDA474 in chow, 9 weeks, plasma, read-out: Plasma PDA474 level): 370 ± 40 nM
time until plasma concentrations of PDA474 reached steady state ([3]; rabbits, chow with 0.02% PDA474): 1˜2 weeks
amount of the administered PDA474 reaching the circulation ([3]; rabbits, chow with 0.02% PDA474, estimated): < 1%
Compound: CC(C)(C)c1cc(SSc2cc(C(C)(C)C)c(O)c(C(C)(C)C)c2)cc(C(C)(C)C)c1O [PDA474]
Plasma Ascorbate [1, 8]: 34.56 ± 4.36 µmol/L
Plasma Ch18:2 [1, 8]: 0.19 ± 0.02 mmol/L
Plasma Ch20:2 [1, 8]: 0.01 ± 0.00 mmol/L
Plasma Free Chol [1, 8]: 0.49 ± 0.05 mmol/L
Plasma Total Chol [1, 8]: 0.69 ± 0.07 mmol/L
Plasma Urate [1, 8]: 5.56 ± 0.43 µmol/L
Plasma a-TOH [1, 8]: 4.40 ± 0.24 µmol/L
Serum HDL Chol [1, 8]: 0.58 ± 0.07 mmol/L
Serum Triglycerides [1, 8]: 0.95 ± 0.11 mmol/L
Plasma Ascorbate ([1]; 0.02% PDA474, Week 3 (ABI)): 44.01 ± 5.29 µmol/L
Plasma Ch18:2 ([1]; 0.02% PDA474, Week 3 (ABI)): 0.19 ± 0.02 mmol/L
Plasma Ch20:2 ([1]; 0.02% PDA474, Week 3 (ABI)): 0.08 ± 0.00 mmol/L
Plasma Free Chol ([1]; 0.02% PDA474, Week 3 (ABI)): 0.42 ± 0.03 mmol/L
Plasma Total Chol ([1]; 0.02% PDA474, Week 3 (ABI)): 0.62 ± 0.03 mmol/L
Plasma Urate ([1]; 0.02% PDA474, Week 3 (ABI)): 5.86 ± 0.65 µmol/L
Plasma a-TOH ([1]; 0.02% PDA474, Week 3 (ABI)): 5.02 ± 0.50 µmol/L
Serum Cholesterol ([1]; 0.02% PDA474, Week 3 (ABI)): 0.77 ± 0.14 mmol/L
Serum HDL Chol ([1]; 0.02% PDA474, Week 3 (ABI)): 0.50 ± 0.09 mmol/L
Serum Triglycerides ([1]; 0.02% PDA474, Week 3 (ABI)): 0.98 ± 0.15 mmol/L
Plasma Ch18:2 ([1]; 0.02% PDA474, Week 6): 0.25 ± 0.10 mmol/L
Plasma Ch20:2 ([1]; 0.02% PDA474, Week 6): 0.02 ± 0.01 mmol/L
Plasma Free Chol ([1]; 0.02% PDA474, Week 6): 0.43 ± 0.11 mmol/L
Plasma Total Chol ([1]; 0.02% PDA474, Week 6): 0.70 ± 0.21 mmol/L
Plasma a-TOH ([1]; 0.02% PDA474, Week 6): 4.76 ± 0.64 µmol/L
Serum Cholesterol ([1]; 0.02% PDA474, Week 6): 1.15 ± 0.51 mmol/L
Serum HDL Chol ([1]; 0.02% PDA474, Week 6): 0.51 ± 0.15 mmol/L
Serum Triglycerides ([1]; 0.02% PDA474, Week 6): 0.93 ± 0.08 mmol/L
Plasma Ascorbate ([1]; 0.02% PDA474, Week 9 (cull)): 46.51 ± 5.49 µmol/L
Plasma Ch18:2 ([1]; 0.02% PDA474, Week 9 (cull)): 0.16 ± 0.02 mmol/L
Plasma Ch20:2 ([1]; 0.02% PDA474, Week 9 (cull)): 0.04 ± 0.00 mmol/L
Plasma Free Chol ([1]; 0.02% PDA474, Week 9 (cull)): 0.30 ± 0.03 mmol/L
Plasma Total Chol ([1]; 0.02% PDA474, Week 9 (cull)): 0.46 ± 0.04 mmol/L
Plasma Urate ([1]; 0.02% PDA474, Week 9 (cull)): 5.24 ± 1.25 µmol/L
Plasma a-TOH ([1]; 0.02% PDA474, Week 9 (cull)): 3.60 ± 0.31 µmol/L
Serum Cholesterol ([1]; 0.02% PDA474, Week 9 (cull)): 0.67 ± 0.06 mmol/L
Serum HDL Chol ([1]; 0.02% PDA474, Week 9 (cull)): 0.42 ± 0.04 mmol/L
Serum Triglycerides ([1]; 0.02% PDA474, Week 9 (cull)): 0.97 ± 0.13 mmol/L
hypocholesterolemic effect ([1]; rabbits, 0.02% PDA474, 9 weeks): no hypocholesterolemic effect
Serum Cholesterol ([1]; rabbits, chow with 0.02% PDA474, Week 0 (baseline)): 1.13 ± 0.15 mmol/L
muscle tone (g/mg tissue) vs control aortic rings ([2]; NE-induced constriction, PDA474-treated rabbits): nearly twice as high
SNP-induced relaxation vs control ([2]; rings from PDA474-treated rabbits): comparable
ACh-induced relaxation of aortic rings ([2]; rings from PDA474-treated rabbits, pre-constricted with NE at EC50, maximal response at ˜10^−5M ACh): 61 % relaxation
NE-induced constriction of abdominal aortic rings vs control ([2]; rings from balloon-injured rabbits fed 0.02% PDA474): significantly increased
intima-to-media ratio (IMR), Section A1 of the abdominal aorta, vs control [4]: significantly lower
media areas of abdominal aorta vs control [4]: significantly increased
vascular remodeling (lumen area, EEL perimeter) [4]: did not affect
tissue cGMP concentrations in response to ACh vs control [5]: significantly increased
Serum ALT ([6]; Week 0 (baseline)): 51.17 ± 3.08 U/L
Serum AST ([6]; Week 0 (baseline)): 28.17 ± 2.65 U/L
Serum GGT ([6]; Week 0 (baseline)): 11.50 ± 1.06 U/L
Serum ALT ([6]; Week 3 (ABI)): 76.00 ± 8.13 U/L
Serum AST ([6]; Week 3 (ABI)): 63.33 ± 23.47 U/L
Serum GGT ([6]; Week 3 (ABI)): 12.33 ± 2.29 U/L
Serum ALT ([6]; Week 6): 72.83 ± 5.19 U/L
Serum AST ([6]; Week 6): 33.83 ± 8.79 U/L
Serum GGT ([6]; Week 6): 13.67 ± 0.76 U/L
Serum ALT ([6]; Week 9 (cull)): 100.67 ± 10.43 U/L
Serum AST ([6]; Week 9 (cull)): 69.67 ± 14.34 U/L
Serum GGT ([6]; Week 9 (cull)): 12.33 ± 0.99 U/L
effect on liver function ([6]; rabbits, 0.02% PDA474, 9 weeks): did not affect liver function

Compound: Cc1cc(C(C)(C)C)c(O)c(C(C)(C)C)c1 [BHT]
TRAA (decay of tocopheroxyl radical; kobs(+)/kobs(−)) (α-tocopheroxyl radical): Immediate decay
Anti-TMP index [7]: 8-10

Compound: diphenoquinone [H 330/68]
TRAA (decay of tocopheroxyl radical; kobs(+)/kobs(−)) (α-tocopheroxyl radical): kobs(+)/kobs(−)˜1
Anti-TMP index [7]: 100
